These results are taken from PMC12677599 (Advanced Science, 2025).

Several values for one entry are separate records, joined by “and”; a condition that tells them apart may be missing. Identical values can stand only once. Where a SMILES comes first, the peptide text is derived from it. Where no end group is shown, it is not given here. [ ]: non-standard residue; d: D form. The star is where a group is joined. PEG4 = NCCOCCOCCOCCOCCC(=O)O; Piperidide = C1CCN(*)CC1

Broadly, the IC50 is the concentration that gives 50% inhibition. Low readings indicate greater potency in that assay, high ones weaker potency in that assay.

The nature of data set [1]: 50% human serum (from human male AB plasma, US origin; centrifuged to remove the lipid content). The settings on record: 37 °C, up to 24 h.
Data set [2] concerns HMEC-1 normal cell line. Type of data set: cell-based. The settings on record: 24 h. How it is done: (§1) MTT assay was conducted as previously described.^[ [44] ^] Tumor cell lines (NCI‐H460, NCI‐H838, HT‐1080, MCF‐7, PC‐3, U‐251‐MG, and U‐87 MG) were seeded in 96‐well plates at a density of 8000 cells per well in a volume of 100 µL and cultured for 24 h. Normal cell lines (HaCaT, HMEC‐1, MRC‐5, and HEK‐293) were seeded in 96‐well plates at a density of 10 000 cells per well in a volume of 100 µL and cultured for 48 h. After that, only tumor cell lines were starved with 100 µL of SFM for a further 4–6 h. Subsequently, cells were treated with 100 µL of compound solutions with different concentrations for 24 h. Cells treated with SFM and 0.5% DMSO in SFM served as blank control and growth control, respectively. Ten µL of MTT solution (5 mg mL^−1) was added to each well, followed by an additional incubation period of 2 h for tumor cells and 4 h for normal cells. Finally, the solvent in each well was swapped with 100 µL of DMSO to dissolve the formazan crystals. The absorbance was measured by the plate reader at 570 nm.
(§2) The cell viability was calculated (1) Cellviability%=ODSamplegroup−ODBlank/ODGrowthgroup−ODBlank×100%

Data set [3] deals with MRC-5 normal cell line. It is filed as cell-based. The settings on record: 24 h. How it is done: as §1, §2
Data set [4] deals with HT-1080 cell line. Type of data set: cell-based. The settings on record: 24 h. Here is the method: as §1, §2
The test system of data set [5] is H838 cell line. Type of data set: cell-based. To be noted: 24 h. How it is done: as §1, §2
Data set [6] deals with HaCaT normal cell line. Type of data set: cell-based. The settings on record: 24 h. Here is the method: as §1, §2
Data set [7] deals with erythrocytes. It is filed as cell-based. To be noted: red cells of horse, 2 h. Here is the method: Defibrinated horse blood (1 mL) was washed 3 times with 0.9% NaCl solution to remove plasma and then resuspended in 20 mL of 0.9% NaCl solution to obtain a red blood cell (RBC) suspension. Aliquots of the RBC suspension (100 µL) were incubated with 100 µL of compound solutions at concentrations ranging from 100 to 1.5625 µM (twofold serial dilution) for 2 h at 37 °C. RBCs treated with 0.9% NaCl solution and 1% Triton X‐100 solution served as blank and positive controls, respectively. Subsequently, the samples were centrifuged at 900 × g for 10 min, and the absorbance of the supernatant was measured at 570 nm.
The hemolysis ratio was calculated as (2) Hemolysis%=ODSamplegroup−ODBlank/ODPositivegroup−ODBlank×100%

The test system of data set [8] is HEK-293 normal cell line. Briefly: cells. Type of data set: cell-based. To be noted: 24 h. How it is done:
as §1, §2

Data set [9] relates to H460 cell line. In words: cells. Type of data set: cell-based. The settings on record: 24 h. Here is the method:
as §1, §2

Data set [10] relates to Cisplatin-resistance H460 cell line. Type of data set: cell-based. To be noted: 24 h. How it is done: as §1
(§3) Wild type H460 cells were cultured in a T‐75 flask and exposed to 30 µM of cisplatin. Cells were passed when the confluency reached 90%. The IC50 value of cisplatin on this cell line was evaluated every two passages. After the IC50 value was higher than 500 µM, the cultured medium was changed to normal CGM, and the cell line was cultured for another three passages. The IC50 value was evaluated again to make sure the resistance was stable. The other three resistance cell lines establishment process was similar. […] Parental NCI‐H460 cells were exposed to 10 µM 5‐fluorouracil, 2.5 µM paclitaxel, or 2.5 µM etoposide to generate 5‐fluorouracil‐resistant, paclitaxel‐resistant, and etoposide‐resistant cell lines, respectively.

The subject of data set [11] is 5-Fluorouracil-resistance H460 cell line. It is filed as cell-based. The settings on record: 24 h. How it is done: as §1, §3
Data set [12] deals with Etoposide-resistance (DR-EPT) H460 cell line. Type of data set: cell-based. To be noted: 24 h. How it is done: as §1, §3
In data set [13] the test system is Paclitaxel-resistance (DR-PTX) H460 cell line. Type of data set: cell-based. The settings on record: 24 h. How it is done:
as §1, §3

In the case of ATFFPKIFDDLE(PIP)SILPKIL-NH2, the cleaved bond result in data set [1] is recorded as “F-F, major”.
On the same count and under the same terms, the result for AEFFPKIFDDLE(PIP)SILPKIL-NH2 reads “Ala-E”.
Regarding FFPKIFDDLSSILPKIL-NH2 [compound 266], the IC50 in [2], in data set [3], in data set [4], in data set [5], in data set [6] and in data set [8] was > 100 µM in each case. For the same molecule, in [9], the IC50 is > 100 µM. Also, in [7], the “HC10 (concentration causing 10% of erythrocytes lysis)” value is recorded as >100 µM.
Take “AKFFPKIFDDLE(PIP)SILPKILGPLGLAG-(PEG4)6-NH2”: the not cleaved result in data set [1] is reported as “nearly 100% remaining ratio after 24 h”.
Regarding AKFFPKIFDDLE(PIP)SILPKIL-NH2, the cleaved bond entry in [1] is listed as “Ala-K”.
As to `CC[C@H](C)[C@H](NC(=O)[C@H](CCCCN)NC(=O)[C@@H]1CCCN1C(=O)[C@H](CC(C)C)NC(=O)[C@@H](NC(=O)[C@H](CO)NC(=O)[C@H](CCC(=O)N1CCCCC1)NC(=O)[C@H](CC(C)C)NC(=O)[C@H](CC(=O)O)NC(=O)[C@H](CC(=O)O)NC(=O)[C@H](Cc1ccccc1)NC(=O)[C@@H](NC(=O)[C@H](CCCCN)NC(=O)[C@@H]1CCCN1C(=O)[C@H](Cc1ccccc1)NC(=O)[C@@H](N)Cc1ccccc1)[C@@H](C)CC)[C@@H](C)CC)C(=O)N[C@@H](CC(C)C)C(=O)NCC(=O)N1CCC[C@H]1C(=O)N[C@@H](CC(C)C)C(=O)NCC(=O)N[C@@H](CC(C)C)C(=O)N[C@@H](C)C(=O)NCC(=O)NCCOCCOCCOCCOCCC(N)=O` [compound 204] (H-FFPKIFDDLE(Piperidide)SILPKILGPLGLAG[PEG4]-NH2), the “HC10 (concentration causing 10% of erythrocytes lysis)” value in [7] turned out to be 46.10 µM. For the same molecule, the IC50 worked out at 34.1 ± 3.41 µM in [8] and 20 ± 1.05 µM in [9].
For `CC[C@H](C)[C@H](NC(=O)[C@H](CCCCN)NC(=O)[C@@H]1CCCN1C(=O)[C@H](CC(C)C)NC(=O)[C@@H](NC(=O)[C@H](CO)NC(=O)[C@H](CCC(=O)N1CCCCC1)NC(=O)[C@H](CC(C)C)NC(=O)[C@H](CC(=O)O)NC(=O)[C@H](CC(=O)O)NC(=O)[C@H](Cc1ccccc1)NC(=O)[C@@H](NC(=O)[C@H](CCCCN)NC(=O)[C@@H]1CCCN1C(=O)[C@H](Cc1ccccc1)NC(=O)[C@H](Cc1ccccc1)NC(=O)[C@H](CCC(=O)O)NC(=O)[C@H](C)N)[C@@H](C)CC)[C@@H](C)CC)C(=O)N[C@@H](CC(C)C)C(N)=O` [239-1] (H-AEFFPKIFDDLE(Piperidide)SILPKIL-NH2) the same measures were 97.64 µM, > 100 µM and 88.2 µM.
For the molecule ARFFPKIFDDLE(PIP)SILPKIL-NH2, in data set [1], the cleaved bond result is recorded as “R-F, major”.
Same read-out and setting: the result for FFPKIFDDLE(PIP)SILPKIL-NH2 reads “Phe1-F”.
For `CC[C@H](C)[C@H](NC(=O)[C@H](CCCCN)NC(=O)[C@@H]1CCCN1C(=O)[C@H](CC(C)C)NC(=O)[C@@H](NC(=O)[C@H](CO)NC(=O)[C@H](CCC(=O)N1CCCCC1)NC(=O)[C@H](CC(C)C)NC(=O)[C@H](CC(=O)O)NC(=O)[C@H](CC(=O)O)NC(=O)[C@H](Cc1ccccc1)NC(=O)[C@@H](NC(=O)[C@H](CCCCN)NC(=O)[C@@H]1CCCN1C(=O)[C@H](Cc1ccccc1)NC(=O)[C@H](Cc1ccccc1)NC(=O)[C@H](CCCCN)NC(=O)[C@H](C)N)[C@@H](C)CC)[C@@H](C)CC)C(=O)N[C@@H](CC(C)C)C(=O)NCC(=O)N1CCC[C@H]1C(=O)N[C@@H](CC(C)C)C(=O)NCC(=O)N[C@@H](CC(C)C)C(=O)N[C@@H](C)C(=O)NCC(=O)NCCOCCOCCOCCOCCC(=O)NCCOCCOCCOCCOCCC(=O)NCCOCCOCCOCCOCCC(=O)NCCOCCOCCOCCOCCC(N)=O` [compound 247] (H-AKFFPKIFDDLE(Piperidide)SILPKILGPLGLAG[PEG4][PEG4][PEG4][PEG4]-NH2), the IC50 is > 100 µM in [2]; > 100 µM in [3]; > 100 µM in [6]; 51.9 ± 5.64 µM in data set [8]; 29.2 ± 1.33 µM in data set [9]. Further, the “HC10 (concentration causing 10% of erythrocytes lysis)” value in data set [7] is >100 µM.
With “FFPLIFGALSSILPKIL-NH2 [compound 111, Temporin‐HLa]”, the IC50 in [2] amounted to 13.5 ± 0.8 µM; in data set [3], 26.3 ± 2.59 µM; in data set [4], 7.37 ± 0.7 µM; in data set [5] it was 11 ± 1.06 µM; in data set [6], 13.6 ± 0.91 µM; in [10] it was 5.24 ± 0.15 µM. In addition, the IC50 in data set [11] is 5.14 ± 0.22 µM; in data set [12], 5.17 ± 0.16 µM; in [13], 5.54 ± 0.04 µM; in data set [8], 8.03 ± 1.1 µM; in [9], 6.03 ± 0.18 µM. Also, in data set [7], the “HC10 (concentration causing 10% of erythrocytes lysis)” value was determined as 6.59 µM.
Regarding `CC[C@H](C)[C@H](NC(=O)[C@H](CCCCN)NC(=O)[C@@H]1CCCN1C(=O)[C@H](CC(C)C)NC(=O)[C@@H](NC(=O)[C@H](CO)NC(=O)[C@H](CCC(=O)N1CCCCC1)NC(=O)[C@H](CC(C)C)NC(=O)[C@H](CC(=O)O)NC(=O)[C@H](CC(=O)O)NC(=O)[C@H](Cc1ccccc1)NC(=O)[C@@H](NC(=O)[C@H](CCCCN)NC(=O)[C@@H]1CCCN1C(=O)[C@H](Cc1ccccc1)NC(=O)[C@H](Cc1ccccc1)NC(=O)[C@H](CCCNC(=N)N)NC(=O)[C@H](C)N)[C@@H](C)CC)[C@@H](C)CC)C(=O)N[C@@H](CC(C)C)C(N)=O` [239-3] (H-ARFFPKIFDDLE(Piperidide)SILPKIL-NH2), the “HC10 (concentration causing 10% of erythrocytes lysis)” value in data set [7] is 24.72 µM. The half-inhibitory concentration (IC50) in data set [8] stood at 15 ± 1.38 µM; in [9] it was 14.7 ± 1.22 µM.
In the same order, the values of `CC[C@H](C)[C@H](NC(=O)[C@H](CCCCN)NC(=O)[C@@H]1CCCN1C(=O)[C@H](CC(C)C)NC(=O)[C@@H](NC(=O)[C@H](CO)NC(=O)[C@H](CCC(=O)N1CCCCC1)NC(=O)[C@H](CC(C)C)NC(=O)[C@H](CC(=O)O)NC(=O)[C@H](CC(=O)O)NC(=O)[C@H](Cc1ccccc1)NC(=O)[C@@H](NC(=O)[C@H](CCCCN)NC(=O)[C@@H]1CCCN1C(=O)[C@H](Cc1ccccc1)NC(=O)[C@@H](N)Cc1ccccc1)[C@@H](C)CC)[C@@H](C)CC)C(=O)N[C@@H](CC(C)C)C(=O)NCC(=O)N1CCC[C@H]1C(=O)N[C@@H](CC(C)C)C(=O)NCC(=O)N[C@@H](CC(C)C)C(=O)N[C@@H](C)C(=O)NCC(=O)NCCOCCOCCOCCOCCC(=O)NCCOCCOCCOCCOCCC(N)=O` [compound 207] (H-FFPKIFDDLE(Piperidide)SILPKILGPLGLAG[PEG4][PEG4]-NH2) are 69.26 µM, 44.2 ± 3.21 µM and 28 ± 1.59 µM.
Regarding FFPKIFDDLFSILPKIL-NH2 [compound 228], the IC50 in data set [2] was 30.7 ± 3.14 µM; in data set [3], 34.1 ± 2.32 µM; in data set [4] it was 30.5 ± 6.05 µM; in data set [5] it was 26.4 ± 1.78 µM; in data set [6], 34 ± 2.66 µM; in data set [8], 13.8 ± 1.42 µM. This molecule also yielded a half-inhibitory concentration (IC50) in data set [9] of 17.5 ± 0.91 µM. For the same molecule, the “HC10 (concentration causing 10% of erythrocytes lysis)” value in data set [7] is 14.57 µM.
For the molecule “FFPKIFDDLE(PIP)SILPKILGPLGLAG-(PEG4)4-NH2”, the cleaved bond entry in data set [1] is on record as “Phe1-F”.
AK(Ac)FFPKIFDDLE(PIP)SILPKIL-NH2: in data set [1], the fragment found is 239-4-Ac-1 FPKIFDDLE(PIP)SILPKIL-NH2 and 239-4-Ac-2 FFPKIFDDLE(PIP)SILPKIL-NH2.
